Residues, ends and D or L forms follow the SMILES beside them.
Target: h-mT1R2-EX5/T1R3mosaicA (UniProt Q8TE23+Q925D8, A12W/A31M/A537S/A558R/A564V/A568V/A570T/A588V/A645S/A649T/A658V/A698V/A702T/A782V/A793V/A807V/C582S/C678S/E16H/E530V/E534N/E542M/E548N/E725V/F14L/F29L/F525Y/F541I/F612A/F622V/F665L/F695L/G696N/G701T/H528R/H728R/I36V/I490V/I510L/I518V/I595M/I60P/I617V/I643V/I645L/I692L/I695G/I706V/I740A/I803L/K30R/K504M/K555R/K565R/K626T/K714N/K818R/K827G/L17P/L521P/L560F/L571I/L578I/L610P/L631F/L636F/L639V/L684P/L688V/L702I/L734M/L735F/L800F/L823M/L825Q/M19T/M492I/M616G/M644L/M682V/M690V/M744T/M748V/N52R/N540G/N541S/N547G/N58S/N63T/N675D/N721H/P545F/P561R/P564S/P61V/P638T/P824S/Q32K/Q536L/Q53S/Q546K/Q550E/Q555R/Q56R/Q611L/Q676H/Q757R/Q795R/Q831P/R498S/R632Q/R667S/S22P/S45E/S501P/S547N/S550A/S576L/S595F/S610P/S628F/S635P/S637R/S663R/S670G/S679G/S681F/S703N/S717H/S727G/S784D/S804G/T46A/T50G/T529S/T542A/T549I/T609V/T629S/T642S/T663I/T694M/T705I/T706G/T716I/T813A/V508I/V512P/V557A/V573A/V584A/V585L/V613L/V617M/V673M/V687A/V691A/V694A/V718L/V718M/V723A/V729T/V738A/V741L/V774I/V791M/V805L/V812A/V821L/W599R/W676R/W824R/Y533F/Y615F/Y671F/Y680C/Y769S/Y783H/Y794L)
Conditions: Table 4; genes h-mTEX5/T3mA (h-mT1R2-EX5, T1R3mA); HEK293E cells

h-mT1R2-EX5/T1R3mosaicA, sequence (Q8TE23 with tags, fused parts or gaps with the stated changes limits assumed): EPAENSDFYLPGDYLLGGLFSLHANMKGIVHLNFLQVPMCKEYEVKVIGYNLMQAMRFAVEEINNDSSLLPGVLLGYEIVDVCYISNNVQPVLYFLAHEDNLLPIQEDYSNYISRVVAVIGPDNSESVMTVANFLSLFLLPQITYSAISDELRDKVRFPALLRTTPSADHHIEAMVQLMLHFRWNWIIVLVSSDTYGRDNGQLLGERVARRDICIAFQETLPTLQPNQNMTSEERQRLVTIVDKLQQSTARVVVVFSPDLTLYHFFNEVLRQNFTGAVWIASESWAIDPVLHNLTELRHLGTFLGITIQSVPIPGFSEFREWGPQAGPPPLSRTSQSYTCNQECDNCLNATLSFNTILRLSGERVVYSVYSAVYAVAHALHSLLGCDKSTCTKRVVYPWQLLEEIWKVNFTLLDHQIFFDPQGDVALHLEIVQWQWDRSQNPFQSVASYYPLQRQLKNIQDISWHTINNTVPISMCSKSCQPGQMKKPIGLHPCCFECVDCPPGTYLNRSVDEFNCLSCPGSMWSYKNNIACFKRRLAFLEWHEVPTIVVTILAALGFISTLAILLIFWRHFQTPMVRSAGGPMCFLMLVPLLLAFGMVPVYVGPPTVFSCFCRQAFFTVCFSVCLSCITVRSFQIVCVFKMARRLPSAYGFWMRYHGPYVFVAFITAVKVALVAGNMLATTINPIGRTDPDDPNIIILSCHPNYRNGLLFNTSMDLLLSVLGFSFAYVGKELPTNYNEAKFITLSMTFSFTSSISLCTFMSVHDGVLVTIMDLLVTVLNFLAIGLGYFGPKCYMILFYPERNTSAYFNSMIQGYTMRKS
h-mT1R2-EX5/T1R3mosaicA, sequence (Q925D8 with tags, fused parts or gaps with the stated changes limits assumed): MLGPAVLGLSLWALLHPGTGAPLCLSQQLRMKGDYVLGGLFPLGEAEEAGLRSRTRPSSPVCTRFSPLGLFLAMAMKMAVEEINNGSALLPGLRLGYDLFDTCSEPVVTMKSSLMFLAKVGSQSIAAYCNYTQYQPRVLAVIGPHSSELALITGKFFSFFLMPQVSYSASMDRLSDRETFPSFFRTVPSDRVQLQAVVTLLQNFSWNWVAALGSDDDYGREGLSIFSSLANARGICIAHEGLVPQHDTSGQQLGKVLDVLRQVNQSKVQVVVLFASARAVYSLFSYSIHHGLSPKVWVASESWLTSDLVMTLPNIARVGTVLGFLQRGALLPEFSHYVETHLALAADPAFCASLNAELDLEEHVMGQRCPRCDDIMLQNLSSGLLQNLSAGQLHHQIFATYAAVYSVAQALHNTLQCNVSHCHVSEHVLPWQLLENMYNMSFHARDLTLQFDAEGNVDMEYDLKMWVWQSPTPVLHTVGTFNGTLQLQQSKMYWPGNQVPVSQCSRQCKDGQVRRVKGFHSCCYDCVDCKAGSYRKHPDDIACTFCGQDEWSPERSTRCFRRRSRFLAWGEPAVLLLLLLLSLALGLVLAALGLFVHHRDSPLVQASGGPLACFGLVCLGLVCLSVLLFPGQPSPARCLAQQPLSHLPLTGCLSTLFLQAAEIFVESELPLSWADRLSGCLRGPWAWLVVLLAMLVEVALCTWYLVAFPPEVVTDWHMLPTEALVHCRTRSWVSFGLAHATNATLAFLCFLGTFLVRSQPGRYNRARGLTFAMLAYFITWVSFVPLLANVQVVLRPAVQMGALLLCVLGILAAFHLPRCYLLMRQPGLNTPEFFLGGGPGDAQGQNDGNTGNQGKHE

SMILES	S/N
OC[C@H]1O[C@H](O[C@]2(CCl)O[C@H](CCl)[C@@H](O)[C@@H]2O)[C@H](O)[C@@H](O)[C@H]1Cl [Sucralose, sucralose]	7.4
C[C@H](NC(=Nc1ccc(C#N)cc1)NCC(=O)O)c1ccccc1 [SC-45647, [3-[(S)-1-phenylethyl]-2-(4-cyanophenyl)guanidino]acetic acid]	7.3
COC(=O)[C@H](Cc1ccccc1)NC(=O)[C@H](CC(=O)O)NCCCc1ccc(OC)c(O)c1 [Advantame, advantame]	9.4
COC(=O)[C@H](Cc1ccccc1)NC(=O)[C@H](CC(=O)O)NCCC(C)(C)C [Neotame, neotame]	7.5
COC(=O)[C@H](Cc1ccccc1)NC(=O)[C@@H](N)CC(=O)O [Aspartame, aspartame] (HELM PEPTIDE1{D.F.[CO[*:1]]}$$$$V2.0)	7.6
OC[C@H]1O[C@@](CO)(O[C@H]2O[C@H](CO)[C@@H](O)[C@H](O)[C@H]2O)[C@@H](O)[C@@H]1O [Sucrose, sucrose]	3.5
CC1=CC(=O)NS(=O)(=O)O1 [Acesulfame K, acesulfame potassium]	5.1
O=C1NS(=O)(=O)c2ccccc21.[Na] [Saccharin Na, sodium saccharin]	4.6

Source: patent US9341616B2, “Sweet taste receptor chimeric proteins and use thereof” (AJINOMOTO CO., INC., priority 2014, dated 2016)
